Read-outs that look alike come from different tables or passages of the source.

In one series the target is T1, 5-HT2A receptor (Homo sapiens, UniProt P28223).
T1 construct: expressed in transfected cells
As to the kind of experiment: PDSP secondary binding, 5-HT2A. The arrangement: species or system human or rodent. As to the method: (§1) GPCR panel: Screening against the receptors within the PDSP panel offers an assessment of off-target pharmacological activity at cloned human or rodent CNS receptors, channels, and transporters that could confound CNS-related phenotypes. A total of 46–47 primary binding assays were run in quadruplicate on these compounds at 10 μM, with follow-up secondary binding assays in 11-point dose-response in triplicate for select compounds versus select receptors. Secondary binding assays were executed for all receptors where test compound displaced an average of >50% of radio-labeled standard ligand. As an exception, no secondary assays were carried out for H3, PBR, or GABAA. […]

The target in series [1] is T2, norepinephrine transporter (Homo sapiens, UniProt P23975).
T2 construct: expressed in transfected cells
As to the kind of experiment: PDSP secondary binding, norepinephrine transporter. The arrangement: species or system human or rodent. As for the experimental part: as §1

Another series concerns the target T3, Alpha1D receptor (Homo sapiens, UniProt P25100).
T3 construct: expressed in transfected cells
As to the kind of experiment: PDSP secondary binding, Alpha1D. Also on record: species or system human or rodent. As for the experimental part:
as §1

The target of a further series is T4, H4 receptor (Homo sapiens, UniProt Q9H3N8).
T4 construct: expressed in transfected cells
As to the kind of experiment: PDSP secondary binding, H4. Also on record: species or system human or rodent. As for the experimental part: as §1

For a further series, the target named is T5, serotonin transporter (Homo sapiens, UniProt P31645).
T5 construct: expressed in transfected cells
As to the kind of experiment: PDSP secondary binding, serotonin transporter. The arrangement: species or system human or rodent. As for the experimental part: as §1

In another series the test system is MerTK. Also on record: method as in PubMed 25068800, 27649555. The settings on record: published affinity; ref PubMed 25068800, 27649555; cited from earlier work.
The next series relates to FLT3. Also on record: method as in PubMed 25068800, 27649555. The note with it: published affinity; ref PubMed 25068800, 27649555; cited from earlier work.
In series [2] the test system is HMC3 (human microglia) immortalized cell line. The note with it: 10 μM, human immortalized microglial cells; cited from earlier work.
Series [3] concerns tau hyperphosphorylation species (Ser396 and Ser404). The arrangement: method as in PMID 32488482. The note with it: 5 mg/kg/day; cited from earlier work.
A further series relates to human nerve cells. The arrangement: method as in PMID 31378059. The note with it: cited from earlier work.
Series [4] relates to N2a cells stably expressing wild-type PS1 and myc-tagged Swedish mutant APP (APPsw). Also on record: method as in PMID 16354722. The settings on record: cited from earlier work.

T1 sequence (P28223 whole entry): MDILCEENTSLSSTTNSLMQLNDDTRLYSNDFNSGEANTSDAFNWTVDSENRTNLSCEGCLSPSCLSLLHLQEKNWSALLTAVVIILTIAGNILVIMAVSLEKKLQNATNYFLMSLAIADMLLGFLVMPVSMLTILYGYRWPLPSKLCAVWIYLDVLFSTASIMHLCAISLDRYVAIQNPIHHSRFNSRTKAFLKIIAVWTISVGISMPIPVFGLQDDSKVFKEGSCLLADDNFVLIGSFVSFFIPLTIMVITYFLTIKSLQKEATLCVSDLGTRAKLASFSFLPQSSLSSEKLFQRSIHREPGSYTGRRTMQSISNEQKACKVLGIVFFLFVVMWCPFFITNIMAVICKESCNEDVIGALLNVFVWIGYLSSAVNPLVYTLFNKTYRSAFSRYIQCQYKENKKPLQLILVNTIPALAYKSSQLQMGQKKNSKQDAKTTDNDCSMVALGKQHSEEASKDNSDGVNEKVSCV
T5 sequence (P31645 whole entry): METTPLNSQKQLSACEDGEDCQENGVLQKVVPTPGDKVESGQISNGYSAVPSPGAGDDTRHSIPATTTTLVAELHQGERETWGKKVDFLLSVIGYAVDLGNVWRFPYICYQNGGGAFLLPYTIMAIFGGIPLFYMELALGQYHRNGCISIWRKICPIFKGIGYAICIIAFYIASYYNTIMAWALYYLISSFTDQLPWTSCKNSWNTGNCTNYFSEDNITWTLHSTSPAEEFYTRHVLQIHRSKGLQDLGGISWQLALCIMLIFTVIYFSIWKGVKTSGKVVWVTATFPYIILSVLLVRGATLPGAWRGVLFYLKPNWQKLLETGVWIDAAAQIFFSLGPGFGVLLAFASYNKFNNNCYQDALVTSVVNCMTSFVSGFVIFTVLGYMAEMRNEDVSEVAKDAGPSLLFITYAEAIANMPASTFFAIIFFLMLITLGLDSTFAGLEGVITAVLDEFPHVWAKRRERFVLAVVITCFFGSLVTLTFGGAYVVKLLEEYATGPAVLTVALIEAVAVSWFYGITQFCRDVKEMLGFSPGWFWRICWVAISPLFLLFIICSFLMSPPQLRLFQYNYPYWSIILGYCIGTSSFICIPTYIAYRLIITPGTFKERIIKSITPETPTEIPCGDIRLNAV
T3 sequence (P25100 whole entry): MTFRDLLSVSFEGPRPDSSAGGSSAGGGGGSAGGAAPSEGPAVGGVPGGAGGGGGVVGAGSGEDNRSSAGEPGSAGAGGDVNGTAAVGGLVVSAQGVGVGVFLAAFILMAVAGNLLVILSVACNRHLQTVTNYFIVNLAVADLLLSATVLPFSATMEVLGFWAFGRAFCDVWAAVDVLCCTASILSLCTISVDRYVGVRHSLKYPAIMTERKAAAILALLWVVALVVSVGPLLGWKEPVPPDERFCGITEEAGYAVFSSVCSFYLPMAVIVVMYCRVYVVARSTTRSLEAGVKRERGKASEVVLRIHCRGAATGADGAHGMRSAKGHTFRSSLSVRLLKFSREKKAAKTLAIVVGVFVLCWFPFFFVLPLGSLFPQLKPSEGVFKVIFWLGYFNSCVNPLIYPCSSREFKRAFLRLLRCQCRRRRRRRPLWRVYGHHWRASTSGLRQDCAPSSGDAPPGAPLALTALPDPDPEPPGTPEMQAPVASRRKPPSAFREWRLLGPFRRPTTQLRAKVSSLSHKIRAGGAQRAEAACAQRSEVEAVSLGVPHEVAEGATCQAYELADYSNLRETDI
T4 sequence (Q9H3N8 whole entry): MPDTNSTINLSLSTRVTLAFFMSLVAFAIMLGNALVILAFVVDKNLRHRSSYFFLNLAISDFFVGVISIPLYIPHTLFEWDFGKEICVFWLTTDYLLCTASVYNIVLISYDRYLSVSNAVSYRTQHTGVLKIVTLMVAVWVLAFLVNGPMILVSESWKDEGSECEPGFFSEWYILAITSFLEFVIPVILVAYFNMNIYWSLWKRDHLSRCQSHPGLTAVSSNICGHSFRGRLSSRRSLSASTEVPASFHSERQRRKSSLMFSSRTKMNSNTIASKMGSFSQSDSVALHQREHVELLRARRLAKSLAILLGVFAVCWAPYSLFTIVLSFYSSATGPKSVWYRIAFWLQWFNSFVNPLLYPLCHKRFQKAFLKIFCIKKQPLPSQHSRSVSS
T2 sequence (P23975 whole entry): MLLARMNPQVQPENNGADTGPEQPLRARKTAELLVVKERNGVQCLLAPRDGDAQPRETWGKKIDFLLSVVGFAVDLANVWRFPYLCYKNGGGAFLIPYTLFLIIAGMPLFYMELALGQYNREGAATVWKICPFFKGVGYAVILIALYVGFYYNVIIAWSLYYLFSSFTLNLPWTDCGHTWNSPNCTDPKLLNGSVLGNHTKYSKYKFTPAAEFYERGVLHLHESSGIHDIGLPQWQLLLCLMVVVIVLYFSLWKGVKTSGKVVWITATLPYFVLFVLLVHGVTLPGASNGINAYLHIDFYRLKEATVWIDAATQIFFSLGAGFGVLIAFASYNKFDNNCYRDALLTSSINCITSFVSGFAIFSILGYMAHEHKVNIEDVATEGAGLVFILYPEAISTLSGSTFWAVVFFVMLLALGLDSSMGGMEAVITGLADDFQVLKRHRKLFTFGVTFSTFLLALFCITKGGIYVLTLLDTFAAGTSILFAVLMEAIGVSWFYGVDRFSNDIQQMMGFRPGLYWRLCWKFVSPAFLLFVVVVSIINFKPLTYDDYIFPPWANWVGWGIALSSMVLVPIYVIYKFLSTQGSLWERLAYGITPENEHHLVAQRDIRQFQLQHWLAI

In the case of `CCCCNc1ncc2c(-c3ccc(CN4CCN(C)CC4)cc3)cn([C@H]3CC[C@H](O)CC3)c2n1` [UNC2025C, UNC2025], the Ki was 366 nM on 5-HT2A receptor (Receptor 5-HT2A, secondary assay, run 1, read-out: Ki (nM) 1); 462 nM on 5-HT2A receptor (Receptor 5-HT2A, secondary assay, run 2, read-out: Ki (nM) 2); 400 nM at 5-HT2A receptor (calculated Ki, secondary binding assay, read-out: Ki 5-HT2A); 1400 nM in series [1] (Receptor NET, secondary assay, read-out: Ki (nM) 1); 1400 nM in [1] (calculated Ki, secondary binding assay, read-out: Ki norepinephrine transporter); 4960 nM on Alpha1D receptor (Receptor Alpha1D, secondary assay, read-out: Ki (nM) 1). Moreover, the Ki on Alpha1D receptor (calculated Ki, secondary binding assay, read-out: Ki Alpha1D) is 5000 nM; at H4 receptor (Receptor H4, secondary assay, read-out: Ki (nM) 1), 4000 nM; at H4 receptor (calculated Ki, secondary binding assay, read-out: Ki H4), 4000 nM; on serotonin transporter (Receptor SERT, secondary assay, read-out: Ki (nM) 1), 906 nM; on serotonin transporter (calculated Ki, secondary binding assay, read-out: Ki serotonin transporter) it was 900 nM. Moreover, the “Reported on-target biochemical potency, MERTK” value in the series on MerTK is on record as 0.74 nM. The “Reported on-target biochemical potency, FLT3” value in the series with FLT3 is 0.8 nM. Moreover, the “Human microglial cytotoxicity at 10 μM (<70% control)” value in series [2] is recorded as “Y (The compound was found to be cytotoxic (cell count threshold: <70% control) when human immortalized microglial cells were dosed at 10 μM (Y: yes))”.
Take `CCC(=O)N1CCC(NC(=O)Nc2ccc(OC(F)(F)F)cc2)CC1` [UNC10302681A, TPPU]: the “Tau hyperphosphorylation species (Ser396 and Ser404)” value in series [3] is listed as “reduction of tau hyperphosphorylation species”. In the series on human nerve cells, the Tau hyperphosphorylation entry was “prevent tau hyperphosphorylation”.
Consider MDL 28170 [UNC10302675A], for which the “Secretion of Aβ40 and Aβ42” value in [4] (30 μM for 24 hours) was “did not inhibit”. Besides, the “Levels of secreted Aβ40 and Aβ42” value in [4] (30 μM, between 24 and 48 hours) was “increased dramatically”. For the same compound, the “Response in secreted Aβ40 or Aβ42” value in [4] (concentrations < 5 μM, 48 hours) is “did not result in a response”.

As a reminder, the Ki is a dissociation constant, usually derived from enzyme kinetics or from competition with a known ligand.

The record behind these values is PMC9005681, “Use of AD Informer Set compounds to explore validity of novel targets in Alzheimer's disease pathology” (Alzheimer's & Dementia : Translational Research & Clinical …, 2022).
